Measurements taken from patent US20090130691A1, “SCREENING PROTEINASE MODULATORS USING A CHIMERIC PROTEIN AND SKI-I PROPROTEIN CONVERTASE SUBSTRATES AND INHIBITORS” (Institut de Recherches Cliniques de Montreal, priority 2005, published 2009).
pIC50: −log10 of the molar value. Read-outs that look alike come from different tables or passages of the source. Residues, ends and D or L forms follow the SMILES beside them. *: point of attachment. Decanoyl = CCCCCCCCCC(=O)*; CH2Cl = ClC*

What was measured:
SKI-1 [1] = target: T1, SKI-1 (Cricetulus griseus, UniProt Q9Z2A8); assay: cell-based; design: species or system hamster
T1 construct: endogenous in cells; host or cells: CHOK1
T1 sequence (Q9Z2A8 187-1052): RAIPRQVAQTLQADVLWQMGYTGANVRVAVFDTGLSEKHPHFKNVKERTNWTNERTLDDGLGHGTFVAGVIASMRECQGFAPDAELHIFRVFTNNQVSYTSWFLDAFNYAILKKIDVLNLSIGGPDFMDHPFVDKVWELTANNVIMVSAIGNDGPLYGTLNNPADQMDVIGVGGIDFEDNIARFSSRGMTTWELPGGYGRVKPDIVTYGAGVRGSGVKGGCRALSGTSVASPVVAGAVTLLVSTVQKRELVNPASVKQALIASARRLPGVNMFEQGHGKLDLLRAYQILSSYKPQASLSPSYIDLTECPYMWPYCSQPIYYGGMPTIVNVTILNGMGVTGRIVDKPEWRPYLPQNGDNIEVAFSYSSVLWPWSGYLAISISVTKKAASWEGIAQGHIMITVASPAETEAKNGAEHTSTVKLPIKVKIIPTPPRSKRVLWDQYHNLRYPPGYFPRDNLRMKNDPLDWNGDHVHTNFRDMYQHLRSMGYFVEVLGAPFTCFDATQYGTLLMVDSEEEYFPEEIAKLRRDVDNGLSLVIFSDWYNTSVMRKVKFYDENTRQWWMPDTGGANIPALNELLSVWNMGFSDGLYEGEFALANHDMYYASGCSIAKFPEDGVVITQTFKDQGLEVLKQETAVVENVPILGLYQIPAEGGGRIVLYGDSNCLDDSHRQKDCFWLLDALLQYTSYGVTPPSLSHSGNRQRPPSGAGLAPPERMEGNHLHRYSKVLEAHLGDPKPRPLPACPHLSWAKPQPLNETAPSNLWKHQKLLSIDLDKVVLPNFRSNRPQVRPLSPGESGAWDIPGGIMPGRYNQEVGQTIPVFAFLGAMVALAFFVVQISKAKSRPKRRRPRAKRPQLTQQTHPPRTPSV

SKI-1 [2] = target: T1, SKI-1; assay: cell-based
[3] = test system: endogenous Furin-like PCs; assay: Ex vivo processing of proPDGF-A in HEK293 cells stably expressing PDGF-A-V5; format: cell-based, human
SKI-1 [4] = target: T2, SKI-1 (Homo sapiens, UniProt Q14703); format: cell-based
T2 construct: For SKI-1, several cell lines expressing SKI-1 could be used; endogenous in cells; host or cells: HuH7
T2 sequence (Q14703 187-1052): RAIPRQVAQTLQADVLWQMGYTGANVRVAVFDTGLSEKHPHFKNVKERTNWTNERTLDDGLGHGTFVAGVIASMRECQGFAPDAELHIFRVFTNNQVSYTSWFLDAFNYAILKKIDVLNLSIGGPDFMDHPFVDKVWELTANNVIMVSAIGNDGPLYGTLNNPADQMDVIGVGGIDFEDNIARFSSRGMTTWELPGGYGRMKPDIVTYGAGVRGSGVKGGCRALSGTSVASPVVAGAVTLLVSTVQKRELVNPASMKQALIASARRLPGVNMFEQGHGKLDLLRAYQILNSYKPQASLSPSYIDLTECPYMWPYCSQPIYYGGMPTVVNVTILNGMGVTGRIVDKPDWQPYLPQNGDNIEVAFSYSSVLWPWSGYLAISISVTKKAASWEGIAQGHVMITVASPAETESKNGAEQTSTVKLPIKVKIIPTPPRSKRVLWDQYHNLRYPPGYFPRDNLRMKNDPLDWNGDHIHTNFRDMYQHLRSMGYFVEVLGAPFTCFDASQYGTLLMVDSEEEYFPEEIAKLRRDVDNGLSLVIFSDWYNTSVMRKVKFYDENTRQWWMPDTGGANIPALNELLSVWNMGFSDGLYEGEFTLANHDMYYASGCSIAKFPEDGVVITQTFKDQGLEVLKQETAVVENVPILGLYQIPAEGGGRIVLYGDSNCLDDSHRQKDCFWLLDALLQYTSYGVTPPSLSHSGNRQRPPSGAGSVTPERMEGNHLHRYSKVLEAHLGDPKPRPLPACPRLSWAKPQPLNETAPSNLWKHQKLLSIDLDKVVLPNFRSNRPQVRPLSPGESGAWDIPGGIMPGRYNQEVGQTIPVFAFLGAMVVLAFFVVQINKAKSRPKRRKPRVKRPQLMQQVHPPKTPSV

[5] = target: T3, SKI-1 (endogenous enzyme of CHOK1 cells) (UniProt Q9Z2A8); assay: cell-based or functional assay
T3 sequence: T1 sequence (Q9Z2A8 187-1052)

[6] = target: endogenous Furin-like PCs; assay: cell-based or functional assay
Furin-like PCs [7] = assay: FACS detection of HA tag on HeLa cells expressing Furin-like PC bait chimera; format: cell-based, human
Description: HeLa cells were submitted to two rounds of fluorescence activated cell sorting (FACS) using Alexa488™ as fluorophore with a MoFlo™ cell sorter (Cytomation, Fort Collins, Colo., USA) to obtain pools of cells expressing the Fc (Fc positive) but negative for the HA tag (HA negative) (FIG. 7A, darker dots). The presence of Fc tags was the sign that cleavage by Furin-like PCs at the bait sequence KRIRLRR←SPD (SEQ ID NO: 29) had released the HA tag.
This isolated pool of cells was incubated for 6 h with 60 μM of dec-RVKR-cmk (SEQ ID NO: 35), a potent PC-inhibitor, and submitted to FACS analysis.
The FACS sorted cells pool was then used to isolate individual clones: 10 clones were isolated of which one (clone PCfur-1.6) expresses a large amount of Fc (i.e. […] chimera) at the cell surface.

NARC-1/PCSK9 = assay: Western blot of cells expressing NARC-1/PCSK9 bait (SN11) chimera; format: cell-based, human; settings: 50 μM, 6 h
Description: A specific CELISA to the NARC-1/PCSK9 was designed using the approach described in Example 1 above. Chimeras were constructed using sequences known to be cleavable by NARC-1/PCSK9 (SSVFAQ-SIPWN (SEQ ID NO: 31)), or EEDSSVFAQ-SIPWN (SEQ ID NO: 55) combined to full length ACE2-CT segment, and then used to transfect HuH7. Chimeras are also similarly constructed using KHQKLL-SIDLD (SEQ ID NO: 32)). HuH7 was selected amongst 20 cell lines as being one in which the NARC-1/PCSK9 expression level the highest.
Cells expressing chimera containing the NARC/PCSK9 bait SSVFAQ-SIPWN (SEQ ID NO: 31) (SN11) were analyzed by Western blot. Cells were treated or not for 6 h with 50 μM of dec-RVKR-cmk (SEQ ID NO: 35) to inhibit endogenous Furin-like enzymes and thus indirectly activate NARC/PCSK9. Cells express an approximately equal amounts of ER- (endo H sensitive, not shown) and Golgi-associated (endo H resistant, not shown) SN11 chimera as observed using an HA mAb. […] The Western blot protocol used was a standard one using a monoclonal commercial anti-HA antibody coupled to horseradish peroxidase (Sigma; used as proposed by the manufacturer) at a final dilution of 1:5000.

Furin-like PCs [8] = assay: CELISA detection of HA tag on HeLa cells expressing Furin-like PC bait chimera; format: cell-based, human; settings: for effect of serpin expression on presence of the HA tag at the cell surface: PCfur-1.6 cells transfected or adenovirus infected
Description: A CELISA test was then used to confirm the results obtained by the FACS analysis (FIG. 7A). Pools of cells transfected with the chimera were rinsed twice with PBS. Then, at room temperature, the following steps were performed. Cells were fixed in PBS and 4% formalin 10 min. They were then rinsed twice with PBS. The anti-HA/peroxidase antibody diluted 1/8000 in PBS and 1% powdered milk (filtered) was then added. The cells were incubated 30 minutes on Labquake™. Again, the cells were rinsed twice with PBS. The substrate (2,2′ azino-Bis (3-ethylobenzathiazoline-6-sulfonic acid); Sigma) was added to the cells and the mixture was incubated 15 minutes. The OD was read at 405 nm and 470 nm for turbidity, and the subtraction of the reading at both wavelengths (405-470) gave normalized product absorbance. The CELISA assay was performed in the presence of different concentrations of dec-RVKR-cmk (SEQ ID NO:35). The signal/noise ratio obtained in the presence of 60 μM of dec-RVKR-CMK (SEQ ID NO: 35) was above 15. The CELISA (FIG. 7B) confirmed that the presence of the inhibitor increases the detection of HA at the surface of the cells.
Some PCfur-1.6 cells were transfected with an expression vector containing a cDNA coding for either α1-PDX or the α1-AT using lipofectamine as described by the manufacturer (Invitrogen) (less than 20% efficacy), or infected using recombinant adenovirus (Ad) as described (Benjannet et al., 2004) (near 100% efficacy).

Furin-like PCs [9] = assay: Western blot of cell-surface biotinylated proteins of PCfur-1.6 cells immunoprecipitated with HA antibody; format: cell-based, human; settings: PCfur-1.6 cells infected with recombinant adenovirus, 1× and 2×
Description: Similar confirmation was obtained using Western blots of cell-surface biotinylated proteins, immunoprecipitated with the HA-antibody and detected on Western using horseraddish peroxidase coupled streptavidin (WB streptavidin-HRP). The Western blot protocol used was a standard one using a monoclonal commercial anti-HA antibody coupled to horseraddish peroxidase (Sigma; used as proposed by the manufacturer) at a final dilution of 1:5000. […] This confirms that the HA reappears specifically in the presence of a PCs inhibitor. […] Small molecules were also identified with the assay (see Example 7).

Molecule: CCCCCCCCCC(=O)N[C@H](C(=O)N[C@@H](CO)C(=O)N[C@@H](CCCNC(=N)N)C(=O)N[C@@H](CCCNC(=N)N)C(=O)N[C@@H](CC(C)C)C(=O)N[C@@H](CC(C)C)C(=O)CCl)[C@@H](C)CC [dec-ISRRLL-cmk] (Decanoyl-ISRRLL-CH2Cl)
- pIC50 (SKI-1 [1]): ~4.70

Molecule: CCCCCCCCCC(=O)N[C@@H](CCCNC(=N)N)C(=O)N[C@@H](CCCNC(=N)N)C(=O)N[C@@H](CC(C)C)C(=O)N[C@@H](CC(C)C)C(=O)CCl [dec-RRLL-cmk, reference compound] (Decanoyl-RRLL-CH2Cl)
- pIC50 (SKI-1 [2]): ≥ 6.00

Molecule: CCCCCCCCCC(=O)N[C@@H](Cc1ccc(O)cc1)C(=O)N[C@H](C(=O)N[C@@H](CO)C(=O)N[C@@H](CCCNC(=N)N)C(=O)N[C@@H](CCCNC(=N)N)C(=O)N[C@@H](CC(C)C)C(=O)N[C@@H](CC(C)C)C(=O)CCl)[C@@H](C)CC [dec-YISRRLL-cmk] (Decanoyl-YISRRLL-CH2Cl)
- pIC50 (SKI-1 [2]): ≥ 6.00
- pIC50 (SKI-1 [1]): ~5.15
- inhibition of ex vivo processing of proPDGF-A (in words) [3]: not an effective inhibitor
- re-appearance of the HA tag at the cell surface (FACS) (SKI-1 [4]): A reversion of the level of the chimeric protein to that of the uncleaved form

Molecule: dec-ISRRLL-cmk (peptide)
- 50% inhibition of the processing of endogenous proSREBP-2 in CHOK1 cells (Western blot) [5]: 20 µM

Molecule: dec-RRLL-cmk (peptide)
- inhibition of proPDGF-A processing in HEK293 cells (Western blot of media) [6]: > 100 µM

Molecule: dec-RVKR-cmk (Decanoyl-RVKR-CH2Cl)
- conversion of cleaved chimera into uncleaved form exhibiting the HA-tag at the cell surface (FACS) (Furin-like PCs [7]; clone PCfur-1.6, as little as 30 μM): completely converted into an uncleaved form
- re-appearance of the HA tag at the cell surface (FACS) (Furin-like PCs [7]; stable HeLa cell pool, 60 μM, 6 h): very significant reversion of the level of the chimeric protein to that of the uncleaved form
- level of Golgi-associated HA tag versus ER-associated (indirect activation of NARC-1/PCSK9) (NARC-1/PCSK9): a substantial decrease in the level of the Golgi-associated HA tag versus the ER-one
- signal/noise ratio in CELISA (Furin-like PCs [8]; HeLa cell pool, 60 μM inhibitor): above 15
- concentration that completely inhibits proPDGF-A processing ([3]; HEK293 cells, overnight, Western blot): ~3 µM

Molecule: α1-AT: serpin α1-antitrypsin, which does not inhibit PCs; control
- HA-tagged chimera at the cell surface by Western blot (Furin-like PCs [9]): no chimeric HA-tagged chimera could be detected
- effect of serpin expression on presence of the HA tag at the cell surface (Furin-like PCs [8]): had no effect

Molecule: α1-PDX: serpin variant, a known PCs inhibitor, expressed from cDNA or adenovirus
- HA-tagged chimera at the cell surface by Western blot (Furin-like PCs [9]): the presence of the HA tag at the cell surface of these cells could be observed
- increase in absorbance in CELISA, Ad:PDX compared to Ad:AT (Furin-like PCs [8]; PCfur-1.6 cells infected with recombinant adenovirus): ~7 fold
- effect of serpin expression on presence of the HA tag at the cell surface (Furin-like PCs [8]): increased the presence of the HA tag at the cell surface
